Results: US20260062422A1 (Halda Therapeutics OpCo, Inc., priority 2022, published 2026)

System: T47D cells
Assay: Cellular growth inhibition assay for T47D cells, CellTiter-Glo
Assay type: cell-based, human
Settings: 72 hours treatment, CellTiter-Glo 2.0 cell viability
Experimental: T47D cells were purchased from American Type Cell Culture (ATCC Cat #HTB-133) and then seeded on poly-D-lysine coated, black clear-bottom 384-well plates at 3000/well in 25 μL Dulbecco's Modified Eagle Medium (DMEM) supplemented with 10% w/w Fetal bovine serum (FBS), 0.2 units/mL recombinant human insulin (Gibco Cat #12585014), and 1% w/w Pen-Strep. Pen-Strep is a commercially available mixture of penicillin G and streptomycin, which is used in mammalian cell culture media to prevent bacterial contamination. Dulbecco's Modified Eagle Medium (DMEM) supplemented with 10% w/w fetal bovine serum (FBS), 0.2 units/mL recombinant human insulin, and 1% w/w Pen-Strep is herein referred to as Treatment Medium. Following seeding of cells in the plates, the plates were spun at 300×g for 30 seconds, then equilibrated to room temperature for 30 minutes, and then deposited in a humidified tissue culture incubator maintained at 37° C. with 5% CO2.
At 24 hours after seeding of the cells, dilutions of test compound were prepared in DMSO and dissolved in Treatment Medium, to achieve a final DMSO concentration of 0.5% w/w, thereby providing the Test Compound Solution. A 25 μL aliquot of the Test Compound Solution was added to cells in the well plates. An equal volume of a solution containing DMSO and Treatment Medium was used as a negative control. Following treatment of cells with Test Compound Solution or said equal volume of a solution containing DMSO and Treatment Medium, the plates were spun at 300×g for 30 seconds, and then left in an incubator for 72 hours.
At the end of the treatment duration, cell viability was quantified with CellTiter-Glo 2.0 reagent (Promega Cat #G9243). For this purpose, plates were equilibrated to room temperature for 30 minutes, and then 25 μL of CellTiter-Glo 2.0 reagent was added to cells in the plate wells. Plates were then agitated on a shaker for two minutes at 500 rpm and subsequently incubated at room temperature for 10 minutes. Following incubation, the plates were spun at 3000×g for 30 seconds, then sealed with an optical adhesive cover, and luminescence readings were measured with an EnVision Plate Reader (Perkin Elmer).
Data was normalized using zero luminescence for baseline. A four-parameter non-linear regression curve fit was applied to dose-response data in GraphPad Prism data analysis software to determine the half-maximal growth inhibitory concentration (GI50) for each test compound.

Row | Compound | GI50 (Homo sapiens, T47D, 72 h) [µM] | GI50 [µM]
1 | Cc1sc2c(c1C)C(c1ccc(C#CC3CC4(CCCN(c5ncc(C(=O)N[C@H]6C(C)(C)[C@H](Oc7ccc(C#N)c(Cl)c7)C6(C)C)cn5)C4)C3)cc1)=NC1(CC1)c1nnc(C)n1-2 [Compound I-486] | > 3 | –
2 | Cc1sc2c(c1C)C(c1ccc(C#CC3CC4(CCCN(c5ncc(C(=O)N[C@H]6C(C)(C)[C@H](Oc7ccc(C#N)c(Cl)c7)C6(C)C)cn5)C4)C3)cc1)=NC1(CC1)c1nnc(C)n1-2 [Compound I-487] | – | > 3
3 | Cc1sc2c(c1C)C(c1ccc(CC3CC(C4CCCN(c5ncc(C(=O)N[C@H]6C(C)(C)[C@H](Oc7ccc(C#N)c(Cl)c7)C6(C)C)cn5)C4)C3)cc1)=N[C@@H](C)c1nnc(C)n1-2 (stereo partly drawn) [Compound I-488] | < 0.5 | –
4 | Cc1sc2c(c1C)C(c1ccc(CC3CC(C4CCCN(c5ncc(C(=O)N[C@H]6C(C)(C)[C@H](Oc7ccc(C#N)c(Cl)c7)C6(C)C)cn5)C4)C3)cc1)=N[C@@H](C)c1nnc(C)n1-2 (stereo partly drawn) [Compound I-489] | – | < 0.5
5 | Cc1sc2c(c1C)C(c1ccc(N3CC(C4CCN(c5cnc(C(=O)N[C@H]6C(C)(C)[C@H](Oc7ccc(C#N)c(Cl)c7)C6(C)C)cn5)CC4)C3)cc1)=N[C@@H](C)c1nnc(C)n1-2 [Compound I-490] | 0.5 to 1.5 | –
6 | Cc1sc2c(c1C)C(c1ccc([C@H]3C[C@@H]3CC3CCCN(c4ncc(C(=O)N[C@H]5C(C)(C)[C@H](Oc6ccc(C#N)c(Cl)c6)C5(C)C)cn4)C3)cc1)=NC(Cc1ncco1)c1nnc(C)n1-2 (stereo partly drawn) [Compound I-491] | – | > 3
7 | Cc1sc2c(c1C)C(c1ccc([C@H]3C[C@@H]3CC3CCCN(c4ncc(C(=O)N[C@H]5C(C)(C)[C@H](Oc6ccc(C#N)c(Cl)c6)C5(C)C)cn4)C3)cc1)=N[C@@H](Cc1ncco1)c1nnc(C)n1-2 (stereo partly drawn) [Compound I-492] | – | > 3
8 | Cc1sc2c(c1C)C(c1ccc([C@H]3C[C@@H]3CC3CCCN(c4ncc(C(=O)N[C@H]5C(C)(C)[C@H](Oc6ccc(C#N)c(Cl)c6)C5(C)C)cn4)C3)cc1)=N[C@@H](Cc1ncco1)c1nnc(C)n1-2 (stereo partly drawn) [Compound I-493] | – | 0.5 to 1.5
9 | Cc1sc2c(c1C)C(c1ccc([C@H]3C[C@@H]3CC3CCCN(c4ncc(C(=O)N[C@H]5C(C)(C)[C@H](Oc6ccc(C#N)c(Cl)c6)C5(C)C)cn4)C3)cc1)=NC(Cc1ncco1)c1nnc(C)n1-2 (stereo partly drawn) [Compound I-494] | – | < 0.5
10 | Cc1sc2c(c1C)C(c1ccc([C@H]3C[C@@H]3CC3CCCN(c4ncc(C(=O)N[C@H]5C(C)(C)[C@H](Oc6ccc(C#N)c(Cl)c6)C5(C)C)cn4)C3)cc1)=NC(Cc1ncco1)c1nnc(C)n1-2 (stereo partly drawn) [Compound I-495] | – | < 0.5
11 | Cc1sc2c(c1C)C(c1ccc([C@H]3C[C@@H]3CC3CCCN(c4ncc(C(=O)N[C@H]5C(C)(C)[C@H](Oc6ccc(C#N)c(Cl)c6)C5(C)C)cn4)C3)cc1)=NC(Cc1ncco1)c1nnc(C)n1-2 (stereo partly drawn) [Compound I-496] | – | < 0.5
12 | Cc1sc2c(c1C)C(c1ccc(-n3cnc(C4CCN(c5ncc(C(=O)N[C@H]6C(C)(C)[C@H](Oc7ccc(C#N)c(Cl)c7)C6(C)C)cn5)CC4)n3)cc1)=N[C@@H](Cc1ncco1)c1nnc(C)n1-2 [Compound I-497] | < 0.5 | –
13 | Cc1sc2c(c1C)C(c1ccc(N3CC4(CC(Cc5ncc(C(=O)N[C@H]6C(C)(C)[C@H](Oc7ccc(C#N)c(Cl)c7)C6(C)C)cn5)C4)C3)cc1)=N[C@@H](Cc1ncco1)c1nnc(C)n1-2 [Compound I-498] | 0.5 to 1.5 | –
14 | Cc1sc2c(c1C)C(c1ccc(OCC3CC4(CCCN(c5ncc(C(=O)N[C@H]6C(C)(C)[C@H](Oc7ccc(C#N)c(Cl)c7)C6(C)C)cn5)C4)C3)cc1)=NC1(CC1)c1nnc(C)n1-2 [Compound I-499] | > 3 | –
15 | Cc1sc2c(c1C)C(c1ccc(OCC3CC4(CCCN(c5ncc(C(=O)N[C@H]6C(C)(C)[C@H](Oc7ccc(C#N)c(Cl)c7)C6(C)C)cn5)C4)C3)cc1)=NC1(CC1)c1nnc(C)n1-2 [Compound I-500] | – | > 3
16 | Cc1sc2c(c1C)C(c1ccc(CCOC3CCN(c4ncc(C(=O)N[C@H]5C(C)(C)[C@H](Oc6ccc(C#N)c(Cl)c6)C5(C)C)cn4)CC3)cc1)=N[C@@H](C)c1nnc(C)n1-2 [Compound I-501] | 0.5 to 1.5 | –
17 | Cc1sc2c(c1C)C(c1ccc(N3CC(CC4CCN(c5ccc(C(=O)N[C@H]6C(C)(C)[C@H](Oc7ccc(C#N)c(Cl)c7)C6(C)C)cn5)CC4)C3)cc1)=N[C@@H](C)c1nnc(C)n1-2 [Compound I-502] | < 0.5 | –
18 | Cc1sc2c(c1C)C(c1ccc(C#CC3CCC(Cc4ncc(C(=O)N[C@H]5C(C)(C)[C@H](Oc6ccc(C#N)c(Cl)c6)C5(C)C)cn4)CC3)cc1)=N[C@@H](Cc1ncco1)c1nnc(C)n1-2 (stereo partly drawn) [Compound I-505] | – | > 3
19 | Cc1sc2c(c1C)C(c1ccc(C#CC3CCC(Cc4ncc(C(=O)N[C@H]5C(C)(C)[C@H](Oc6ccc(C#N)c(Cl)c6)C5(C)C)cn4)CC3)cc1)=N[C@@H](Cc1ncco1)c1nnc(C)n1-2 (stereo partly drawn) [Compound I-506] | – | 0.5 to 1.5
20 | Cc1sc2c(c1C)C(c1ccc(CC3CC4(CCN(c5ccc(C(=O)N[C@H]6C(C)(C)[C@H](Oc7ccc(C#N)c(Cl)c7)C6(C)C)cn5)CC4)C3)cc1)=NC1(CC1)c1nnc(C)n1-2 [Compound I-507] | < 0.5 | –
21 | Cc1sc2c(c1C)C(c1ccc(C3CC(CC4CCN(c5ncc(C(=O)N[C@H]6C(C)(C)[C@H](Oc7ccc(C#N)c(Cl)c7)C6(C)C)cn5)CC4)C3)cc1)=NC(C)c1nnc(C)n1-2 (stereo partly drawn) [Compound I-508] | – | 0.5 to 1.5
22 | Cc1sc2c(c1C)C(c1ccc(C3CC(CC4CCN(c5ncc(C(=O)N[C@H]6C(C)(C)[C@H](Oc7ccc(C#N)c(Cl)c7)C6(C)C)cn5)CC4)C3)cc1)=NC(C)c1nnc(C)n1-2 (stereo partly drawn) [Compound I-509] | – | < 0.5
23 | Cc1sc2c(c1C)C(c1ccc(C3CC(CC4CCN(c5ncc(C(=O)N[C@H]6C(C)(C)[C@H](Oc7ccc(C#N)c(Cl)c7)C6(C)C)cn5)CC4)C3)cc1)=NC(C)c1nnc(C)n1-2 (stereo partly drawn) [Compound I-510] | – | > 3
24 | Cc1sc2c(c1C)C(c1ccc(C3CC(CC4CCN(c5ncc(C(=O)N[C@H]6C(C)(C)[C@H](Oc7ccc(C#N)c(Cl)c7)C6(C)C)cn5)CC4)C3)cc1)=NC(C)c1nnc(C)n1-2 (stereo partly drawn) [Compound I-511] | – | > 3
25 | Cc1sc2c(c1C)C(c1ccc(CC3CC(CC4CCN(c5ncc(C(=O)N[C@H]6C(C)(C)[C@H](Oc7ccc(C#N)c(Cl)c7)C6(C)C)cn5)CC4)C3)cc1)=N[C@@H](C)c1nnc(C)n1-2 (stereo partly drawn) [Compound I-512] | < 0.5 | –
26 | Cc1sc2c(c1C)C(c1ccc(CC3CC(CC4CCN(c5ncc(C(=O)N[C@H]6C(C)(C)[C@H](Oc7ccc(C#N)c(Cl)c7)C6(C)C)cn5)CC4)C3)cc1)=N[C@@H](C)c1nnc(C)n1-2 (stereo partly drawn) [Compound I-513] | – | < 0.5
27 | Cc1sc2c(c1C)C(c1ccc(N3CC(CC4CN(c5ccc(C(=O)N[C@H]6C(C)(C)[C@H](Oc7ccc(C#N)c(Cl)c7)C6(C)C)nc5)C4)C3)cc1)=N[C@@H](C)c1nnc(C)n1-2 [Compound I-515] | < 0.5 | –
28 | Cc1sc2c(c1C)C(c1ccc(N3CC4(C3)CN(c3ncc(C(=O)N[C@H]5C(C)(C)[C@H](Oc6ccc(C#N)c(Cl)c6)C5(C)C)cn3)C4)cc1)=N[C@@H](C)c1nnc(C)n1-2 [Compound I-516] | 1.5 to 3 | –
29 | Cc1sc2c(c1C)C(c1ccc(N3CC4(C3)CN(c3cnc(C(=O)N[C@H]5C(C)(C)[C@H](Oc6ccc(C#N)c(Cl)c6)C5(C)C)cn3)C4)cc1)=N[C@@H](C)c1nnc(C)n1-2 [Compound I-517] | 1.5 to 3 | –
30 | Cc1sc2c(c1C)C(c1ccc([C@@H]3C[C@H]3C3CC4(CCN(c5cnc(C(=O)N[C@H]6C(C)(C)[C@H](Oc7ccc(C#N)c(Cl)c7)C6(C)C)cn5)CC4)C3)cc1)=N[C@@H](Cc1ncco1)c1nnc(C)n1-2 [Compound I-518] | > 3 | –
